“And” between values parts separate entries of the source, which are not always exact repeats. Equal values may be shown once. Read-outs that look alike come from different tables or passages of the source.
How the values were obtained:
[1] = cited from earlier work; for Classification (acid/base) / dissociation constant - Pka: triazole fungicides, PPDB
[2] = PPDB, cited from earlier work; for Solubility in water: triazole fungicides
[3] = triazole fungicides; PPDB; cited from earlier work
[4] = set-up: RL50 min / RL50 max / RL50 average: unit not given beside the values; conditions: cited from earlier work; for average daily rates of degradation: PPDB
[5] = Levels of fungicides in soybean leaves (total, internal, leaf surface, rainwater) at 3, 6 and 11 DAA, normalized by dose
[6] = Percentage of light absorption of the three active ingredients between 200 and 330 nm; conditions: for Percentage of light absorption: typical application concentrations
[7] = soybean, in vivo
[8] = test system: Corynespora cassiicola; assay: Target spot severity, AUDPC and control efficiency on soybean, Anaurilândia, MS; conditions: 2020
[9] = strobilurin group; PPDB / PubChem; cited from earlier work
[10] = Persistence of fungicides in the plant matrix (RL50, half-life, daily degradation; literature)
[11] = Grape, Italy, Fruit, In and On, Open field, Garau 2009
[12] = Green bean, Egypt, Leaves, On, Open field, Hanafi 2010
[13] = Peanut, India, Leaves, In and On, Open field, Rao 2013
[14] = Rice, China, Whole plant, In and On, Open field, Guo 2017
[15] = Spring onion, Egypt, Leaves, On, Open field, Hanafi
[16] = Strawberry, China, Fruit, In and On, Undercover, Zhang 2009
[17] = Strawberry, China, Fruit, On, Undercover, Wang Z. 2015
[18] = Tomato, Fruit, In and On, Undercover, Jankowska 2016

SMILES: Fc1ccc([C@]2(Cn3cncn3)O[C@H]2c2ccccc2Cl)cc1 (racemic) [epoxiconazole]
- Classification (acid/base) [1]: no dissociation

SMILES: Clc1ccc(C2(Cn3cncn3)OCCO2)c(Cl)c1 [azaconazole]
- Solubility in water [2]: 300 mg/L oR PPM
- Classification (acid/base) [1]: very weak base
- Log Kow (Log de P) [3]: 2.36

SMILES: Clc1ccc(C2(Cn3cncn3)CC(Br)CO2)c(Cl)c1 (centres unmarked) [bromuconazole]
- Solubility in water [2]: 48.3 mg/L oR PPM
- Classification (acid/base) [1]: strong acid
- Log Kow (Log de P) [3]: 3.24

SMILES: N#Cc1c(Cl)c(Cl)c(Cl)c(C#N)c1Cl [chlorothalonil]
- solubility [2]: 0.81 ppm
- water solubilities [2]: 0.81 mg/L
- average daily rates of degradation ([4]; […]): 12.9%
- average daily rates of degradation ([4]; only on the surface of plant tissues): 11.8%
- average total levels for all commercial products and evaluated prototypes ([5]; 03 DAA, 40 to 50 repetitions): 210 (ng/g)/(g/ha)
- average total levels for all commercial products and evaluated prototypes ([5]; 06 DAA): 132 ng.ha/g2
- average total levels for all commercial products and evaluated prototypes ([5]; 11 DAA): 66 ng.ha/g2
- Percentage of light absorption ([6]; Partial UVA, 315 a 330 nm): 100%
- Percentage of light absorption ([6]; Partial UVC, 200 a 280 nm): 98.35%
- Percentage of light absorption ([6]; UVB, 280 a 315 nm): 99.95%
- ultraviolet light absorbed between 200 and 330 nm ([6]; typical concentrations of application in the field): practically all

SMILES: CC(C1CC1)C(O)(Cn1cncn1)c1ccc(Cl)cc1 (centres unmarked) [cyproconazole]
- Classification (acid/base) [1]: no dissociation
- average total levels for all commercial products and evaluated prototypes ([7]; 3 days after application): 267 (ng/g)/(g/ha)
- percentage of the internal content in relation to the total content ([7]; 3 days after application): 69%
- average total levels for all commercial products and evaluated prototypes ([7]; 6 days after application): 173 ng.ha/g2
- percentage of the internal content in relation to the total content ([7]; 6 days after application): 62%
- average total levels for all commercial products and evaluated prototypes ([7]; 11 days after application): 83 ng.ha/g2
- percentage of the internal content in relation to the total content ([7]; 11 days after application): 85%
- Percentage of light absorption ([6]; Partial UVA, 315 a 330 nm): 0.00000%
- Percentage of light absorption ([6]; Partial UVC, 200 a 280 nm): 0.3824%
- Percentage of light absorption ([6]; UVB, 280 a 315 nm): 0.00943%

SMILES: CC1COC(Cn2cncn2)(c2ccc(Oc3ccc(Cl)cc3)cc2Cl)O1 (centres unmarked) [difenoconazole]
- Classification (acid/base) [1]: strong acid
- dissociation constant - Pka [1]: 1.07
- Log Kow (Log de P) [3]: 4.36

SMILES: N#CC(CCc1ccc(Cl)cc1)(Cn1cncn1)c1ccccc1 (centres unmarked) [fenbuconazole]
- Solubility in water [2]: 2.47 mg/L oR PPM
- Classification (acid/base) [1]: no dissociation
- Log Kow (Log de P) [3]: 3.79

SMILES: O=c1c2cc(F)ccc2nc(-n2cncn2)n1-c1ccc(Cl)cc1Cl [fluquinconazole]
- Classification (acid/base) [1]: strong acid
- Log Kow (Log de P) [3]: 3.24

SMILES: CCCCC(O)(Cn1cncn1)c1ccc(Cl)cc1Cl (centres unmarked) [hexaconazole]
- Classification (acid/base) [1]: strong acid

SMILES: CC1(C)CCC(Cc2ccc(Cl)cc2)C1(O)Cn1cncn1 (centres unmarked) [metconazole]
- Classification (acid/base) [1]: very weak acid

SMILES: CC(Cc1ccc(C(C)(C)C)cc1)CN1C[C@@H](C)O[C@@H](C)C1 (some centres unmarked) [phenpropimorph]
- Severity (%) of target spot on soybean plants, Av5 ([8]; fifth assessment): 29.4 D %
- Severity (%) of target spot on soybean plants, Av1 ([8]; first assessment): 0%
- Severity (%) of target spot on soybean plants, Av4 ([8]; fourth assessment): 8.0 A %
- Severity (%) of target spot on soybean plants, Av2 ([8]; second assessment): 1.4 A %
- Severity (%) of target spot on soybean plants, Av6 ([8]; sixth assessment): 37.2 C %
- area under the disease progress curve (AUDPC) ([8]; target spot, from six severity assessments): 688.9 D
- Severity (%) of target spot on soybean plants, Av3 ([8]; third assessment): 4.6 A %

SMILES: CCCC1COC(Cn2cncn2)(c2ccc(Cl)cc2Cl)O1 (centres unmarked) [propiconazole]
- Classification (acid/base) [1]: very weak base
- Log Kow (Log de P) [3]: 3.72

SMILES: OC(Cc1ccccc1Cl)(Cn1nc[nH]c1=S)C1(Cl)CC1 (centres unmarked) [prothioconazole]
- Solubility in water [2]: 22.5 mg/L oR PPM
- Classification (acid/base) [1]: weak acid
- dissociation constant - Pka [1]: 6.9
- Log Kow (Log de P) [3]: 2

SMILES: COC(=O)N(OC)c1ccccc1COc1ccn(-c2ccc(Cl)cc2)n1 [pyraclostrobin]
- ionization ([1]; strobilurin group, PPDB / PubChem): not ionizable
- RL50 average [4, 11]: 5.40
- RL50 max [4, 11]: 5.40
- RL50 min [4, 11]: 5.40
- RL50 average [4, 12]: 4.30
- RL50 max [4, 12]: 4.30
- RL50 min [4, 12]: 4.30
- RL50 average [4, 13]: 2.86
- RL50 max [4, 13]: 2.88
- RL50 min [4, 13]: 2.84
- RL50 average [4, 14]: 10.10
- RL50 max [4, 14]: 13.90
- RL50 min [4, 14]: 6.30
- RL50 average [4, 15]: 3.10
- RL50 max [4, 15]: 3.10
- RL50 min [4, 15]: 3.10
- RL50 average [4, 16]: 4.06
- RL50 max [4, 16]: 4.06
- RL50 min [4, 16]: 4.06
- RL50 average [4, 17]: 3.70
- RL50 max [4, 17]: 3.70
- RL50 min [4, 17]: 3.70
- RL50 average [4, 18]: 2.78 and 2.70
- RL50 max [4, 18]: 2.78 and 2.70
- RL50 min [4, 18]: 2.78 and 2.70
- Steam pressure [9]: 2.60E−05 mpa
- Daily percentage of degradation ([10]; in plants, from the literature observations of Table 04): 14.78%
- half-life ([10]; in vivo): 104 h

SMILES: CC(C)(C)C(O)(CCc1ccc(Cl)cc1)Cn1cncn1 (centres unmarked) [tebuconazole]
- Log Kow (Log de P) [3]: 3.7

SMILES: FC(F)C(F)(F)OCC(Cn1cncn1)c1ccc(Cl)cc1Cl (centres unmarked) [tetraconazole]
- Classification (acid/base) [1]: strong acid

SMILES: CC1(C)CCC(=Cc2ccc(Cl)cc2)C1(O)Cn1cncn1 (centres unmarked) [triticonazole]
- Classification (acid/base) [1]: no dissociation

SMILES: CC(C)(C)C(O)/C(=C\c1ccc(Cl)cc1)n1cncn1 (centres unmarked) [uniconazole]
- Classification (acid/base) [1]: very weak acid

From patent US20240397946A1 (priority 2021, published 2024)
